# The source made the active and inactive calls. No cut-off for these calls is given here.
# Assays:
# [1] = MRT (0 to infinity) in Sprague-Dawley rat at 3 mg/kg, iv measured upto 24 hrs by UPLC/MS/MS analysis; type: ADME, organism-based; conditions: in vivo
# ECa-109 cell line [2] = assay: Induction of apoptosis in vincristine resistant human Eca-109 cells assessed as early apoptotic cells at 1 uM incubated for 24 hrs in presence of vincristine by AnnexinV-FITC/PI staining based flow cytometric analysis (reference value: 4.43%); type: functional
# [3] = AUMC (0 to infinity) in Sprague-Dawley rat at 30 mg/kg, po measured upto 24 hrs by UPLC/MS/MS analysis; type: ADME, organism-based; conditions: in vivo
# [4] = molecular target: T1, ATP-dependent translocase ABCB1 (Homo sapiens, UniProt P08183); assay: Inhibition of P-gp efflux in vincristine resistant human Eca-109 cells assessed as increase in colocalization of dox with nucleus at 1 to 5 uM incubated for 3 hrs by DAPI staining based laser-scanning confocal microscopy analysis; type: cell-based; conditions: eca-109, 3 h, dose 1-5 µM
# T1 sequence (P08183 whole entry): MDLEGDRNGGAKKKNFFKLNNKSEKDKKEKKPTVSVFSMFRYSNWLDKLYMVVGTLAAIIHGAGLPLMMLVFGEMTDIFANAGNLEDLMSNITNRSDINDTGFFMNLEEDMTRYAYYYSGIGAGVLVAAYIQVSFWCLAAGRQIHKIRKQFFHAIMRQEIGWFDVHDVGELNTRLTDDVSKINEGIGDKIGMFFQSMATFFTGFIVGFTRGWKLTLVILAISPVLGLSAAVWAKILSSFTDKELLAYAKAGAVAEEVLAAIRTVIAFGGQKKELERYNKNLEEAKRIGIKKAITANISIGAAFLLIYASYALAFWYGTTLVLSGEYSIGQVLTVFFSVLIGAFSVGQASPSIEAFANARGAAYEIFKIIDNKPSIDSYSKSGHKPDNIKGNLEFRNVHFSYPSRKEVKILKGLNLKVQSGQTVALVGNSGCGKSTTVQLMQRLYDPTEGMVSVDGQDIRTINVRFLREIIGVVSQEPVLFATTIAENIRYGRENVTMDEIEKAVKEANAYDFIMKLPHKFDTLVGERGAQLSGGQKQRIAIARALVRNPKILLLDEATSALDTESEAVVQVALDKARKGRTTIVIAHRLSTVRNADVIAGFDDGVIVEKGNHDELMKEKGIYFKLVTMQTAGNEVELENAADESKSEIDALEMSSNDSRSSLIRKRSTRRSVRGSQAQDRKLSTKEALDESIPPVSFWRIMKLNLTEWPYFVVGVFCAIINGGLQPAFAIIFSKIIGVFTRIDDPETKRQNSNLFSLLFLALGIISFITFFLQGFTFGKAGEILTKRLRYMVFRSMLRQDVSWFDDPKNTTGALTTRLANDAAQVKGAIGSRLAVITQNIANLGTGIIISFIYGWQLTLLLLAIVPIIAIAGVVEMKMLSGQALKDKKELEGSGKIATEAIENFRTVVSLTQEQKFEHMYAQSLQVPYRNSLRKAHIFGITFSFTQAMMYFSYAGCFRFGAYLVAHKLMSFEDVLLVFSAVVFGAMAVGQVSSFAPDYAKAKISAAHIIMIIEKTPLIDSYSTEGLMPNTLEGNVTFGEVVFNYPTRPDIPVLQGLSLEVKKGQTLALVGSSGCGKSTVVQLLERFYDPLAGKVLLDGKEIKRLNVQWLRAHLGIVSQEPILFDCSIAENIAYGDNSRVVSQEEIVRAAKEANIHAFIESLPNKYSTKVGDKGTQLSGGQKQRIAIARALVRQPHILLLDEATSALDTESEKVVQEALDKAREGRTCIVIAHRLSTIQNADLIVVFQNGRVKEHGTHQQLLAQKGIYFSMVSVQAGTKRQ
# ECa-109 cell line [5] = assay: Induction of apoptosis in vincristine resistant human Eca-109 cells assessed as necrotic cells at 1 uM incubated for 24 hrs by AnnexinV-FITC/PI staining based flow cytometric analysis (reference value: 0.25%); type: functional
# ECa-109 cell line [6] = assay: Reversal of vincristine-resistance in human Eca-109 cells assessed as fold reversal by measuring cell viability at 1 uM incubated for 48 hrs by CCK-8 method relative to vincristine alone; type: functional
# ECa-109 cell line [7] = assay: Synergistic antitumor activity against in vincristine resistant p-gp overexpressing human Eca-109 cells xenografted in nude mouse assessed as increase in vacuoles at 30 mg/kg, IG administered every two days for 21 days in presence of vincristine by TUNEL analysis; type: functional, organism-based; conditions: time 21.0 day
# [8] = Half life in Sprague-Dawley rat at 30 mg/kg, po measured upto 24 hrs by UPLC/MS/MS analysis; type: ADME, organism-based; conditions: in vivo
# ECa-109 cell line [9] = assay: Induction of apoptosis in vincristine resistant human Eca-109 cells assessed as late apoptotic cells at 1 uM incubated for 24 hrs by AnnexinV-FITC/PI staining based flow cytometric analysis (reference value: 7.19%); type: functional
# ECa-109 cell line [10] = assay: Induction of apoptosis in vincristine resistant human Eca-109 cells assessed as necrotic cells at 5 uM incubated for 24 hrs in presence of vincristine by AnnexinV-FITC/PI staining based flow cytometric analysis (reference value: 0.35%); type: functional
# ECa-109 cell line [11] = assay: Induction of apoptosis in vincristine resistant human Eca-109 cells assessed as early apoptotic cells at 5 uM incubated for 24 hrs by AnnexinV-FITC/PI staining based flow cytometric analysis (reference value: 2.30%); type: functional
# [12] = molecular target: T1, ATP-dependent translocase ABCB1; assay: Binding affinity to P-gp in vincristine resistant human Eca-109 cells assessed as stabilization of protein at 67 degree C at 100 uM incubated for 30 mins by thermal shift assay; type: cell-based; conditions: eca-109, 0.5 h
# ECa-109 cell line [13] = assay: Induction of apoptosis in vincristine resistant human Eca-109 cells assessed as late apoptotic cells at 2.5 uM incubated for 24 hrs in presence of vincristine by AnnexinV-FITC/PI staining based flow cytometric analysis (reference value: 6.01%); type: functional
# [14] = molecular target: T1, ATP-dependent translocase ABCB1; assay: Inhibition of P-gp efflux in vincristine resistant human Eca-109 cells assessed as increase in intracellular accumulation of calcein-AM at 1 to 5 uM incubated for 1 hr by flow cytometry analysis; type: cell-based; conditions: eca-109, 1 h, dose 1-5 µM
# ECa-109 cell line [15] = assay: Induction of apoptosis in vincristine resistant human Eca-109 cells assessed as necrotic cells at 2.5 uM incubated for 24 hrs in presence of vincristine by AnnexinV-FITC/PI staining based flow cytometric analysis (reference value: 0.35%); type: functional
# [16] = AUC (0 to t) in Sprague-Dawley rat at 3 mg/kg, iv measured upto 24 hrs by UPLC/MS/MS analysis; type: ADME, organism-based; set-up: time < 24 hrs, dose 3 mg/kg, route iv; conditions: in vivo
# [17] = AUC (0 to t) in Sprague-Dawley rat at 30 mg/kg, po measured upto 24 hrs by UPLC/MS/MS analysis; type: ADME, organism-based; set-up: time < 24 hrs, dose 30 mg/kg, route po; conditions: in vivo
# [18] = Tmax in Sprague-Dawley rat at 3 mg/kg, iv measured upto 24 hrs by UPLC/MS/MS analysis; type: ADME, organism-based; conditions: in vivo
# ECa-109 cell line [19] = assay: Reversal of VCR -resistance in human Eca-109 cells assessed as cell viability at 5 uM incubated for 48 hrs by CCK-8 method (reference value: 6830.0+/-537.0 nM); type: functional, cell-based; conditions: ECa-109, 48 h
# ECa-109 cell line [20] = assay: Synergistic antitumor activity against in vincristine resistant p-gp overexpressing human Eca-109 cells xenografted in nude mouse assessed as inhibition of tumor proliferation at 30 mg/kg, IG administered every two days for 21 days in presence of vincristine; type: functional, organism-based; conditions: time 21.0 day
# ECa-109 cell line [21] = assay: Synergistic antitumor activity against in vincristine resistant p-gp overexpressing human Eca-109 cells xenografted in nude mouse assessed as reduction in tumor weight at 30 mg/kg, IG administered every two days for 21 days in presence of vincristine by caliper method; type: functional, organism-based; conditions: time 21.0 day
# ECa-109 cell line [22] = assay: Reversal of vincristine-resistance in human Eca-109 cells assessed as fold reversal by measuring cell viability incubated for 48 hrs by CCK-8 method relative to vincristine alone; type: functional
# [23] = molecular target: T1, ATP-dependent translocase ABCB1; assay: Inhibition of P-gp efflux in vincristine resistant human Eca-109 cells assessed as effect on accumulation of doxorubicin; type: cell-based
# [24] = molecular target: T2, Broad substrate specificity ATP-binding cassette transporter ABCG2 (Homo sapiens, UniProt Q9UNQ0); assay: Binding affinity to ABCG2 in vincristine resistant human Eca-109 cells assessed as stabilization of protein at 100 uM incubated for 30 mins by thermal shift assay; type: cell-based; conditions: eca-109, 0.5 h
# T2 sequence (Q9UNQ0 whole entry): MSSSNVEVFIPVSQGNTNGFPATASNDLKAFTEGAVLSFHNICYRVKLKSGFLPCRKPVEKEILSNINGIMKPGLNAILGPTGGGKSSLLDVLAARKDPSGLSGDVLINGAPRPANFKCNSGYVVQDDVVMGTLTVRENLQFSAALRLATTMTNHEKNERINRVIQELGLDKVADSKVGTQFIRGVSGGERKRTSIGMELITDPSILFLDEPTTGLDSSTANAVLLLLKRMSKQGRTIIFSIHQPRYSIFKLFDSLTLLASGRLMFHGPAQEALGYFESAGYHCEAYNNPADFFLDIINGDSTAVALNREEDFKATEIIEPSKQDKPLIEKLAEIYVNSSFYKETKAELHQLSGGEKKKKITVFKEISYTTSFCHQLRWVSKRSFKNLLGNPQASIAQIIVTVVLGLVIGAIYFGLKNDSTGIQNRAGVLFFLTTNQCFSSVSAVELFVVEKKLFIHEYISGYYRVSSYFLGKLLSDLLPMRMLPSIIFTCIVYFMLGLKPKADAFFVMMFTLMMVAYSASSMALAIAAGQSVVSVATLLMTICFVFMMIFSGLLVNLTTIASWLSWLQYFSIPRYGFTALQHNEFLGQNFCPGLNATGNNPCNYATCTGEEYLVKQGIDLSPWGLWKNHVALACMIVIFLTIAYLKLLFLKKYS
# ECa-109 cell line [25] = assay: Induction of apoptosis in vincristine resistant human Eca-109 cells assessed as viable cells at 1 uM incubated for 24 hrs by AnnexinV-FITC/PI staining based flow cytometric analysis (reference value: 90.3%); type: functional; conditions: read-out: Activity
compound,measurement,setting,value
COc1cc2c(cc1OC)C(Cc1ccc(OC)c(OCc3ccccc3)c1)N(C)CC2 (stereo not given),MRT inf,[1],2.68 h
same,Activity,ECa-109 cell line [2],14.9%
same,AUMC,[3],131110.55 ng/mL.hr^2
same,inhibition (INH),[4],Active
same,Activity,ECa-109 cell line [5],0.15%
same,fold change (FC),ECa-109 cell line [6],3.7
same,Activity,ECa-109 cell line [7],Active
same,half-life,[8],7.37 h
same,Activity,ECa-109 cell line [9],6.12%
same,Activity,ECa-109 cell line [10],0.62%
same,Activity,ECa-109 cell line [11],2.51%
same,Activity,[12],Active
same,Activity,ECa-109 cell line [13],11.3%
same,inhibition (INH),[14],Active
same,Activity,ECa-109 cell line [15],0.42%
same,AUC(0-t) at 24 h,[16],2690 ng·h/mL
same,AUC(0-t) at 24 h,[17],2670 ng·h/mL
same,Tmax,[18],0.17 h
same,IC50,ECa-109 cell line [19],9.9 nM
same,Activity,ECa-109 cell line [20],Active
same,Activity,ECa-109 cell line [21],Active
same,fold change (FC),ECa-109 cell line [22],690.6
same,inhibition (INH),[23],Active
same,Activity,[24],Not Active
same,viability at 1 µM,ECa-109 cell line [25],91.6%

# Reference: ChEMBL document CHEMBL5247655, “Simplified Derivatives of Tetrandrine as Potent and Specific P-gp Inhibitors to Reverse Multidrug Resistance in Cancer Chemotherapy” (J Med Chem, 2023)
